Measured values reported in US9487482B2, “3,4,5-trimethoxystyrylarylaminopropenones as potential anticancer agents” (Council of Scientific and Industrial Research, priority 2014, dated 2016).

How the values were obtained:
[1] = tested on: HCT116 cells; assay: In vitro cytotoxicity, MTT assay, HCT116; format: cell-based, human; conditions: Homo sapiens, HCT-116, HCT116 (colon carcinoma), 48 h continuous drug exposure
Experimental: (§1) All cell lines used in this study were purchased from the American Type Culture Collection (ATCC, United States). A549, MCF-7, and HeLa were grown in Dulbecco's modified Eagle's medium (containing 10% FBS in a humidified atmosphere of 5% CO2 at 37° C.). HCT116 cells were cultured in Eagle's minimal essential medium (MEM) containing non-essential amino acids, 1 mM sodium pyruvate, […] bovine insulin, and 10% FBS. Cells were trypsinized when sub-confluent from T25 flasks/60 mm dishes and seeded in 96-well plates. The synthesized test compounds were evaluated for their in vitro antiproliferative in four different human cancer cell lines. A protocol of 48 h continuous drug exposure was used, and a MTT cell proliferation assay was used to estimate cell viability or growth. The cell lines were grown in their respective media containing 10% fetal bovine serum and were seeded into 96-well microtiter plates in 200 μL, aliquots at plating densities depending on the doubling time of individual cell lines. The microtiter plates were incubated at 37° C., 5% CO2, 95% air, and 100% relative humidity for 24 h prior to addition of experimental drugs. Aliquots of 2 μL, of the test compounds were added to the wells already containing 198 μL, of cells, resulting in the required final drug concentrations. For each compound, four concentrations (1, 10, 100, and 1000 μM) were evaluated, and each was done in triplicate wells. Plates were incubated further for 48 h, and the assay was terminated by the addition of 10 μL, of 5% MTT and incubated for 60 min at 37° C. Later, the plates were air-dried. Bound stain was subsequently eluted with 100 μL, of DMSO, and the absorbance was read on an multimode plate reader (Tecan M200) at a wavelength of 560 nm. Percent growth was calculated on a plate by plate basis for test wells relative to control wells. The above determinations were repeated thrice. The growth inhibitory effects of the compounds were analyzed by generating dose response curves as a plot of the percentage surviving cells versus compound concentration. The sensitivity of the cancer cells to the test compound was expressed in terms of IC50, a value defined as the concentration of compound that produced 50% reduction as compared to the control absorbance. (A. S. Kumar, M. A. Reddy, N. Jain, C. Kishor, T. R. Murthy, D. Ramesh, B. Supriya, A. Addlagatta, S. V. Kalivendi, B. Sreedhar. Eur. J. Med. Chem. 60 (2013) 305-24).

[2] = tested on: HeLa cells; assay: In vitro cytotoxicity, MTT assay, HeLa; format: cell-based, human; conditions: Homo sapiens, HeLa (cervical carcinoma), 48 h continuous drug exposure
Experimental: as §1

[3] = tested on: MCF-7 cells; assay: In vitro cytotoxicity, MTT assay, MCF-7; format: cell-based, human; conditions: Homo sapiens, MCF7, 48 h, MCF-7 (breast cancer), 48 h continuous drug exposure
Experimental: as §1

[4] = tested on: A549 cells; assay: In vitro cytotoxicity, MTT assay, A549; format: cell-based, human; conditions: Homo sapiens, A549 (non-small cell lung cancer), 48 h continuous drug exposure
Experimental: as §1

[5] = tested on: A549, HeLa, MCF-7 and HCT116 cells; assay: In vitro cytotoxicity, MTT assay, summary over all four cancer cell lines; format: cell-based; conditions: Homo sapiens, range over the group of compounds and the four cell lines, read-out: IC50 value range towards all the cancer cell lines
Experimental: as §1

[6] = tested on: tubulin; conditions: by binding at colchicine binding site; Simoni et al., J. Med. Chem. 2008; cited from earlier work

COc1ccc(C(=O)/C=C\Nc2cc(/C=C\c3cc(OC)c(OC)c(OC)c3)cc(OC)c2OC)cc1O [Compound 11q, (Z)-3-((2,3-dimethoxy-5-((Z)-3,4,5-trimethoxystyryl)phenyl)amino)-1-(3-hydroxy-4-methoxyphenyl)prop-2-en-1-one]
IC50 [1]: 3.24 µM | IC50 [2]: 1.91 µM | IC50 [3]: 2.09 µM | IC50 [4]: 0.32 µM | IC50 [5]: 120 to 5750 nM

COc1cc(/C=C\c2ccc(OC)c(N)c2)cc(OC)c1 [S4 (Ca-4 amine), (Z)-5-(3,5-dimethoxystyryl)-2-methoxyaniline, reference compound]
IC50 [1]: 1.62 µM | IC50 [2]: 0.58 µM | IC50 [3]: 4.07 µM | IC50 [4]: 1.78 µM | inhibited tubulin polymerization, compared with CA-4 [6]: five times stronger than CA-4

COc1ccc(C=Cc2cc(OC)c(OC)c(OC)c2)cc1N/C=C\C(=O)c1cn(C)c2ccccc12 [Compound 10w, (Z)-3-(2-methoxy-5-(3,4,5-trimethoxystyryl)phenylamino)-1-(1-methyl-1H-indol-3-yl)prop-2-en-1-one]
IC50 [1]: 0.37 µM | IC50 [2]: 0.46 µM | IC50 [3]: 1.07 µM | IC50 [4]: 0.67 µM | IC50 [5]: 110 to 4680 nM

COc1ccc(C(=O)/C=C\Nc2c(/C=C\c3cc(OC)c(OC)c(OC)c3)ccc(OC)c2O)cc1[N+](=O)[O-] [Compound 16t, (Z)-3-((2-hydroxy-3-methoxy-6-((Z)-3,4,5-trimethoxystyryl)phenyl)amino)-1-(4-methoxy-3-nitrophenyl)prop-2-en-1-one]
IC50 [1]: 3.98 µM | IC50 [2]: 1.66 µM | IC50 [3]: 0.6 µM | IC50 [4]: 7.33 µM | IC50 [5]: 180 to 7330 nM
